Measured values reported in the NIST ThermoML archive (doi:10.1021/je300603d).

Assays:
[1] = 101 kPa, Liquid; for electrical conductivity: Alternating current cell with electrodes; for viscosity: Falling or rolling sphere viscometry; for mass density: Vibrating tube method
[2] = mn = molality of the nth substance listed, in mol/kg; details: 101 kPa, Liquid, m2 = 0; for electrical conductivity: Alternating current cell with electrodes; for viscosity: Falling or rolling sphere viscometry; for mass density: Vibrating tube method

CCCCn1cc[n+](C)c1.F[B-](F)(F)F [1-butyl-3-methylimidazolium tetrafluoroborate]
[1]
Details | electrical conductivity [S/m] | mass density [kg/m3] | viscosity [mPa·s]
238.15 K | 0.00095 | – | –
258.15 K | 0.0227 | – | –
278.15 K | 0.113 | 1216.3 | 384.5
288.15 K | – | 1209 | 197.7
298.15 K | 0.353 | 1201.8 | 112.3
308.15 K | – | 1194.6 | 68.89
318.15 K | 0.826 | 1187.6 | 45.36
328.15 K | – | 1180.6 | 31.49
338.15 K | 1.548 | 1173.6 | 21.99
348.15 K | – | 1166.7 | 16.54
358.15 K | 2.53 | 1159.9 | 12.84
378.15 K | 3.74 | – | –
398.15 K | 5.13 | – | –
418.15 K | 6.68 | – | –
438.15 K | 8.36 | – | –
458.15 K | 10.13 | – | –

CCCCn1cc[n+](C)c1.F[B-](F)(F)F [1-butyl-3-methylimidazolium tetrafluoroborate] + F[B-](F)(F)F.[Na+]
[2]
Details | electrical conductivity [S/m] | mass density [kg/m3] | viscosity [mPa·s]
238.15 K | 0.00095 | – | –
258.15 K | 0.0227 | – | –
278.15 K | 0.113 | 1216.3 | 384.5
288.15 K | – | 1209 | 197.7
298.15 K | 0.353 | 1201.8 | 112.3
308.15 K | – | 1194.6 | 68.89
318.15 K | 0.826 | 1187.6 | 45.36
328.15 K | – | 1180.6 | 31.49
338.15 K | 1.548 | 1173.6 | 21.99
348.15 K | – | 1166.7 | 16.54
358.15 K | 2.53 | 1159.9 | 12.84
378.15 K | 3.74 | – | –
398.15 K | 5.13 | – | –
418.15 K | 6.68 | – | –
438.15 K | 8.36 | – | –
458.15 K | 10.13 | – | –
